Source: patent US20250241313A1, “APPLICATION OF ACTIVE SUBSTANCE IN IMPROVING SEED VIGOR AND METHOD FOR IMPROVING SEED VIGOR” (HUNAN HYBRID RICE RESEARCH CENTER, priority 2024, published 2025)

How the values were obtained:
Assay type in all cases: in vivo
rice seeds = assay: Rice seed germination (seed vigor) after seed soaking
Experimental: (§1) In the following examples, the relative activity index is calculated by the following formula: • (1) average germination rate: ×100% (total number of germinated seeds/total number of tested seeds within 7 days); • (2) average germination potential: ×100% (total number of germinated seeds/total number of tested seeds in the first 5 days); • (3) average germination index: Σ(number of sprouts per day/[…]); • (4) statistical P-value: generally, X represents the statistical quantity of the test, and when H0 is true, the value C of the statistical quantity can be calculated from the sample data, and the P value can be obtained from the specific distribution of the test statistical quantity X. Specifically, the P value of the left test is the probability that the test statistic X is smaller than the sample statistic C, i.e.: P=P {X<C} the P value for the right-side test is the probability that the test statistic X is greater than the sample statistic C: P=P {X>C} the P value of the two-sided test is 2 times the probability that the test statistic X falls within the tail region where the sample statistic C is an endpoint: P=2P {X>C} (when C is located at the right end of the distribution curve) or P=2P {X<C} (when C is located at the left end of the distribution curve) if X obeys a normal distribution and a t-distribution, the distribution curve is symmetric about the vertical axis, so its P value can be represented as P=P {|X|>C}; • after the P-value has been calculated, a test can be concluded by comparing a given significance level a to the P-value: rejecting the original hypothesis if a>P value; if a≤P value, the original assumption is accepted at significance level a. […]

wheat seeds = assay: Wheat seed germination (seed vigor) after seed soaking; settings: for Average germination index / average germination potential / Average germination rate: wheat seeds soaked 24 hours in 0.3 mM aqueous solution; for average germination potential: first 5 days; for Average germination rate: within 7 days
Experimental: as §1

corn seeds = assay: Corn seed germination (seed vigor) after seed soaking; settings: for Average germination index / average germination potential / Average germination rate: corn seeds soaked 24 hours in 0.3 mM aqueous solution; for average germination potential: first 5 days; for Average germination rate: within 7 days
Experimental: as §1

tomato seeds = assay: Tomato seed germination (seed vigor) after seed soaking; settings: for Average germination index / average germination potential / Average germination rate: tomato seeds soaked 24 hours in 0.3 mM aqueous solution; for average germination potential: first 5 days; for Average germination rate: within 7 days
Experimental: as §1

tobacco seeds = assay: Tobacco seed germination (seed vigor) after seed soaking; settings: for Average germination index / average germination potential / Average germination rate: tobacco seeds soaked 24 hours in 0.3 mM aqueous solution; for average germination potential: first 5 days; for Average germination rate: within 7 days
Experimental: as §1

[1] = rice seeds soaked 24 hours in 0.3 mM aqueous solution
[2] = rice seeds soaked 24 hours in 0.3 mM aqueous solution, germinated in the first 5 days
[3] = rice seeds soaked 24 hours in 0.3 mM aqueous solution, germinated within 7 days, 3 parallel groups

| Structure (SMILES) | Average germination index (rice seeds; [1]) | average germination potential (rice seeds; [2]) [%] | Average germination rate (rice seeds; [3]) [%] | Average germination index (wheat seeds) | average germination potential (wheat seeds) [%] | Average germination rate (wheat seeds) [%] | Average germination index (corn seeds) | average germination potential (corn seeds) [%] | Average germination rate (corn seeds) [%] | Average germination index (tomato seeds) | average germination potential (tomato seeds) [%] | Average germination rate (tomato seeds) [%] | Average germination index (tobacco seeds) | average germination potential (tobacco seeds) [%] | Average germination rate (tobacco seeds) [%] | other results |
| --- | --- | --- | --- | --- | --- | --- | --- | --- | --- | --- | --- | --- | --- | --- | --- | --- |
| C=C(OP(=O)(O)O)C(=O)O [PEP, phosphoenolpyruvate] | 11.04 | 66 | 72 | 6.367 | 24 | 24 | 14.2 ^ | 70 | 68 | 9.783 | 59 | 60 | 12.78 | 64 | 70 | Average germination index (rice seeds; rice seeds, 0.09 mM aqueous solution): 8.43; average germination potential (rice seeds; rice seeds, 0.09 mM aqueous solution, first 5 days): 61%; Average germination rate (rice seeds; rice seeds, 0.09 mM aqueous solution, within 7 days): 63%; Average germination index (rice seeds; rice seeds, 0.2 mM aqueous solution): 11.04; average germination potential (rice seeds; rice seeds, 0.2 mM aqueous solution, first 5 days): 66%; Average germination rate (rice seeds; rice seeds, 0.2 mM aqueous solution, within 7 days): 72%; germination condition and root system / leaf growth versus water control (FIG. 1-3) (rice seeds; rice seeds, 0.3 mM, day 4 and day 7): significantly accelerate the growth of the root system and leaf of rice seeds; germination condition and root growth versus water control (FIG. 4-5) (wheat seeds; wheat seeds, 0.3 mM, day 7): the root growth of the wheat seeds can be accelerated; germination condition and root growth versus water control (FIG. 6-7) (corn seeds; corn seeds, 0.3 mM, day 7): the root growth of the corn seeds can be accelerated; germination condition and root system growth versus water control (FIG. 8) (tomato seeds; tomato seeds, 0.3 mM, day 7): the root system growth of the tomato seeds can be accelerated; germination condition and root system growth versus water control (FIG. 9) (tobacco seeds; tobacco seeds, 0.3 mM, day 7): the root system growth of the tobacco seeds can be accelerated |
| C=C(OP(=O)(O)O)C(=O)O.NC1CCCCC1 [PEP-cyclohexylammonium salt, cyclohexylammonium phosphoenolpyruvate] | 10.82 | 66 | 70 | 5.067 | 19 | 21 | 10.25 ^ | 60 | 58 | 10.23 | 65 | 66 | 10.53 | 65 | 68 | Average germination index (rice seeds; rice seeds, 1.1 mM aqueous solution): 9.82; average germination potential (rice seeds; rice seeds, 1.1 mM aqueous solution, first 5 days): 64%; Average germination rate (rice seeds; rice seeds, 1.1 mM aqueous solution, within 7 days): 62% |
| C=C(OP(=O)([O-])O)C(=O)O.[K+] [PEP-K salt, potassium phosphoenolpyruvate] | 10.76 | 64 | 68 | 6.333 | 21 | 22 | 14.5 ^ | 70 | 68 | 10.73 | 64 | 65 | 11.83 | 64 | 66 | Average germination index (rice seeds; rice seeds, 0.5 mM aqueous solution): 10.76; average germination potential (rice seeds; rice seeds, 0.5 mM aqueous solution, first 5 days): 64%; Average germination rate (rice seeds; rice seeds, 0.5 mM aqueous solution, within 7 days): 68% |
